Reference: patent publication US10035778B2, “Meta-azacyclic amino benzoic acid derivatives as pan integrin antagonists” (Saint Louis University, priority 2015, dated 2018)

Assays:
[1] = target: Recombinant human integrin αvβ3 (Homo sapiens (Human), UniProt P05106+P06756); assay: Solid Phase Receptor Assay (SPRA) for αvβ3 function; type: binding; conditions: vitronectin-coated plate
Protocol: 3. Solid Phase Receptor Assay (SPRA) for αvβ3 Function
Recombinant human vitronectin (R& D Systems, 2308-VN) diluted to 1 μg/mL in TBS+ buffer (25 mM Tris pH 7.4, 137 mM NaCl, 2.7 mM KCl, 1 mM CaCl2, 1 mM MgCl2, 1 mM MnCl2) was added to wells (50 μL/well) of a 96-well half-well transparent microtiter plate (Greiner 675061) and incubated overnight at 4° C. Wells were washed 3 times with 150 μL TBS+ and 150 μL of blocking buffer (TBS+ with 1% bovine serum albumin, Sigma A7906) were added. The plate was incubated for 1 hr at 37° C. and then washed 3× with TBS+ buffer. Recombinant human integrin αvβ3 (R&D Systems, 3050-AV) was diluted to 1 μg/mL in TBS+/0.1% bovine serum albumin. Compounds were diluted 1:100 into the integrin solution and then 50 μL added to empty wells of the washed vitronectin-coated plate according to a standard template with each sample repeated in triplicate. After incubation for two hours at room temperature, the plate was washed 3× with 150 μL of TBS+ buffer. To each well, 50 μL of biotinylated anti-αv antibody (R&D Systems, BAF1219) at 0.5 μg/mL in TBS+/0.1% BSA were added and the plate covered and incubated for 1 hr at room temperature. After washing the plate 3× with 150 μL of TBS+ buffer, 50 μL of streptavidin-conjugated horseradish peroxidase (R&D Systems, DY998) diluted in TBS+ blocking buffer were added to the wells and the plate incubated for 20 min at room temperature. The plate was washed 3× with TBS+ buffer followed by 50 μL of TMB substrate (Sigma, T4444) added to each well and the plate was incubated for 20 min at room temperature. Plates were read by colorimetric detection at 650 nm wavelength using a Tecan Safire II plate reader. Concentration-response curves were constructed by non-linear regression (best fit) analysis, and IC50 values were calculated for each compound.

[2] = IV cassette pharmacokinetic study in male Sprague-Dawley rats (Saint Louis University); type: in vivo; conditions: plasma; male Sprague-Dawley rat, 1 mg/kg IV cassette, sampling to 24 h; read-out: plasma t½ after 1 mg/kg IV bolus dose in rat (converted)
Protocol: (§1) A minimally sufficient volume of dimethylsulfoxide (DMSO) was added to each test compound to achieve solubilization. For intravenous (IV) delivery, compounds were then formulated as solutions in glycerol formal: saline (either 20:80 or 40:60 v/v) (Sigma Chemicals, St. Louis). For oral (PO) administration, compounds were formulated with 0.5% methylcellulose. Five to six compound solutions were combined into a singled mixed solution for IV and PO cassette administration with final DMSO concentrations <0.6% or <1.2%, for the IV and PO cassettes, respectively. Analytes were detected in test samples using an LC/MS/MS (liquid chromatography/mass spectrometry) system consisting of an LC-20AD pump (Shimadzu, Kyoto, Japan), an HTC PAL autosampler (Leap technologies, Carrboro, N.C.), and a Sciex API-4000 mass spectrometer in ESI mode (AB Sciex, Foster City, Calif.). An Amour C18 reverse phase column (Analytical Sales and Services, Pompton Plains, N.J.) was used for chromatographic separation.
(§2) Pharmacokinetic (PK) studies conducted at Saint Louis University used male Sprague-Dawley rats with an initial body weight of 200 to 220 g. IV PK studies were performed with the following compounds: Examples 1-3 and 5-17 and comparison compounds C12-C18, C29, and C30. Animals were allowed free access to food and water. Rats were individually housed and connected to jugular vein catheters. Each cassette formulation was administered intravenously to two rats (1 mL/kg body weight). Each cassette formulation contained 5-6 compounds at 1 mg/kg in either 20:80 or 40/60 glycerol formal/saline (v/v). Blood was collected manually via the catheter into lithium-heparin tubes at 0.017, 0.083, 0.5, 1, 2, 4, 6 and 24 hours post-dose. Animals were euthanized with CO2 at the end of the experiment.
(§3) Internal standard was added to all samples at 200 ng/mL (final), as well as 150 μL of acetonitrile. Plasma samples (50 μL total volume) were diluted with control nave rat plasma as appropriate to bring the sample measurement into the linear dynamic range of the standard curve. The samples were capped and mixed on a multi-plate vortexer for 5 minutes and centrifuged for 5 minutes at 3200 rmp. The supernant was transferred to 96-well sample plate and capped for LC/MS/MS analysis. Compounds were optimized and monitored for their respective MRM transitions. The mobile phases consisted of 0.1% formic acid (aqueous) and 100% acetonitrile (organic) with an Amour C18 reverse phase column (2.1×30 mm, 5 micron) at a flow rate of 0.35 mL/min. The starting phase was 10% acetonitrile for the 0.9 minutes then increased to 90% acetonitrile over 0.4 minutes, and was maintained for an additional 0.2 minutes before returning to 10% acetonitrile over 0.4 minutes. The 10% acetonitrile was held for an additional 1.6 minutes. Peak areas were integrated using Analyst 1.5.1 (AB Sciex, Foster City, Calif.).

[3] = Oral (PO) cassette pharmacokinetic study in male Sprague-Dawley rats; type: in vivo; conditions: plasma; male Sprague-Dawley rat, 2 mg/kg oral gavage cassette in 0.5% methylcellulose; read-out: AUC (0-inf) after a 2 mg/kg PO dose in rat
Protocol: as §1, §2
Oral PK studies were conducted with the following compounds: Examples 1-3 and 5-17 and comparison compounds C12, C14-16 and C29-30. The PO cassette formulations were administered via oral gavage to two rats (10 mL/kg body weight) containing 5-6 compounds per cassette. The oral dose was administered at 2 mg/kg/compound in 0.5% methylcellulose. Blood collection time points were 0.25, 0.5, 1, 2, 4, 6 and 24 hours post-dose into lithium-heparin tubes. Animals were euthanized with CO2 at the end of the experiment.
as §3

Sequence of Recombinant human integrin αvβ3 (P06756 31-992): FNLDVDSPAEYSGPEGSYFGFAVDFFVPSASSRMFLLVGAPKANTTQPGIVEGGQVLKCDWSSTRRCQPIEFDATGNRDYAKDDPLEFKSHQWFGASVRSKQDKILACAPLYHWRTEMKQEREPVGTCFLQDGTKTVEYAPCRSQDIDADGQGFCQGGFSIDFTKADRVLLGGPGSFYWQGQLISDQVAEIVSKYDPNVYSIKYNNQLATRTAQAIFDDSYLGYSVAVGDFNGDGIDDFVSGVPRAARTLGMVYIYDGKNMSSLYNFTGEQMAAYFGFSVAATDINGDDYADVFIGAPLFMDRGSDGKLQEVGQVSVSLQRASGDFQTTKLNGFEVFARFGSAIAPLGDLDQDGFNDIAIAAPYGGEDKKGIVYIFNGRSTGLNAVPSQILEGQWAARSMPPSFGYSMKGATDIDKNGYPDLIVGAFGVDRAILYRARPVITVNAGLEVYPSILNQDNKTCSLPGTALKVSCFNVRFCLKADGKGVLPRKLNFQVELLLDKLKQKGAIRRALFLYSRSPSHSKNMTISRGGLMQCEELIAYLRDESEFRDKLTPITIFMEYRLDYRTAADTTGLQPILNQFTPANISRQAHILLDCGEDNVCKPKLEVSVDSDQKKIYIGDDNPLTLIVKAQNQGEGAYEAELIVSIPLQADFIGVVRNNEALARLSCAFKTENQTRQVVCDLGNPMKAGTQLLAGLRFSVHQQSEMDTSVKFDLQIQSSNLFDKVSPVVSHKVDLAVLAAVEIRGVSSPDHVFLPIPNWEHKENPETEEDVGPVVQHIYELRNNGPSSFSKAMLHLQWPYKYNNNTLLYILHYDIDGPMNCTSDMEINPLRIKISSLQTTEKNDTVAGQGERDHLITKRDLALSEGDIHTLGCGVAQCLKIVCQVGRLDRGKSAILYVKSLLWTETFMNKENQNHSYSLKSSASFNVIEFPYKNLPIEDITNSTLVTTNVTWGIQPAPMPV
Sequence of Recombinant human integrin αvβ3 (P05106 27-718): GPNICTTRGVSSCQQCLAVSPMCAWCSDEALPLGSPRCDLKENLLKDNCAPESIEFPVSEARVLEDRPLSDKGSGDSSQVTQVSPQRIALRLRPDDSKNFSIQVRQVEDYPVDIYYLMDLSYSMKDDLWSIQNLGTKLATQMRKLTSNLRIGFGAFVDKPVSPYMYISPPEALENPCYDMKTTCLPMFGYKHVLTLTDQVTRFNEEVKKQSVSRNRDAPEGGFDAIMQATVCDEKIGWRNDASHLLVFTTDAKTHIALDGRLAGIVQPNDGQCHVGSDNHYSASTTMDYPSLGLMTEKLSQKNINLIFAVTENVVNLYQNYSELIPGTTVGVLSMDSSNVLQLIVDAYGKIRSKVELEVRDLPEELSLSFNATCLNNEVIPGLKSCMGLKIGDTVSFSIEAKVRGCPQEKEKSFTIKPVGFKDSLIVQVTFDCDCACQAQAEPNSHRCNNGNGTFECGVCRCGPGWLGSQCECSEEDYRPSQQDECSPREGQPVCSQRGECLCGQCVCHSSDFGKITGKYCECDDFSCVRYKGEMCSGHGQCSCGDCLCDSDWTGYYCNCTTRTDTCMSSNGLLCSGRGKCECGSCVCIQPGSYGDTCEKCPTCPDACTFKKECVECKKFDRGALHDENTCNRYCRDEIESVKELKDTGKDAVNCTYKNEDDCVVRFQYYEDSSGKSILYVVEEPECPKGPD

Row | Structure (SMILES) | IC50 [1] [nM] | half-life [2] [h] | AUC(0-inf) [3] [ng·h/mL]
1 | O=C(O)C[C@H](NC(=O)CNC(=O)c1cc(O)cc(NC2=NCC(O)CN2)c1)c1cc(Br)cc(Br)c1 (stereo partly drawn) [Example 1, (3S)-3-(3,5-dibromophenyl)-3-(2-(3-hydroxy-5-((5-hydroxy-1,4,5,6-tetrahydropyrimidin-2-yl)amino)benzamido)acetamido)propanoic acid] | 2.3 ± 0.1 | 20.2 | 25000
2 | O=C(O)C[C@H](NC(=O)CNC(=O)c1cc(O)cc(NC2=NCC(O)CN2)c1)c1cc(Br)cc(C(F)(F)F)c1 (stereo partly drawn) [Example 2, (3S)-3-(3-bromo-5-(trifluoromethyl)phenyl)-3-(2-(3-hydroxy-5-((5-hydroxy-1,4,5,6-tetrahydropyrimidin-2-yl)amino)benzamido)acetamido)propanoic acid] | 2.7 ± 0.4 | 9.1 | 19300
3 | O=C(O)C[C@H](NC(=O)CNC(=O)c1cc(O)cc(NC2=NCC(O)CN2)c1)c1cc(Cl)cc(C(F)F)c1 (stereo partly drawn) [Example 3, (3S)-3-[3-chloro-5-(difluoromethyl)phenyl)-3-(2-(3-hydroxy-5-((5-hydroxy-1,4,5,6-tetrahydropyrimidin-2-yl)amino)benzamido)acetamido]propanoic acid] | 1 | 6.1 | 4870
4 | O=C(O)C[C@H](NC(=O)CNC(=O)c1cc(O)cc(NC2=NCC(O)CN2)c1)c1cc(Br)cc(C(F)F)c1 (stereo partly drawn) [Example 4, (3S)-3-[3-bromo-5-(difluoromethyl)phenyl)-3-(2-(3-hydroxy-5-((5-hydroxy-1,4,5,6-tetrahydropyrimidin-2-yl)amino)benzamido)acetamido]propanoic acid] | 3 |  | 
5 | O=C(O)C[C@H](NC(=O)CNC(=O)c1cc(O)cc(NC2=NCC(O)CN2)c1)c1cc(Cl)cc(C(F)(F)F)c1 (stereo partly drawn) [Example 5, (3S)-3-[3-chloro-5-(trifluoromethyl)phenyl)-3-(2-(3-hydroxy-5-((5-hydroxy-1,4,5,6-tetrahydropyrimidin-2-yl)amino)benzamido)acetamido]propanoic acid] | 3 | 6.6 | 11400
6 | O=C(O)C[C@H](NC(=O)CNC(=O)c1cc(O)cc(NC2=NCC(O)CN2)c1)c1cc(Cl)cc(Br)c1 (stereo partly drawn) [Example 6, (3S)-3-[3-bromo-5-chloro-phenyl)-3-(2-(3-hydroxy-5-((5-hydroxy-1,4,5,6-tetrahydropyrimidin-2-yl)amino)benzamido)acetamido]propanoic acid] | 1 | 16.7 | 34400
7 | O=C(O)C[C@H](NC(=O)CNC(=O)c1cncc(NC2=NCC(O)CN2)c1)c1cc(Cl)cc(C(F)(F)F)c1 (stereo partly drawn) [Example 7] | 3 | 4.6 | 3890
8 | O=C(O)C[C@H](NC(=O)CNC(=O)c1cncc(NC2=NCC(O)CN2)c1)c1cc(Cl)cc(Br)c1 (stereo partly drawn) [Example 8, (3S)-3-(3-bromo-5-chloro-phenyl)-3-[[2-[[5-[(5-hydroxy-1,4,5,6-tetrahydropyrimidin-2-yl)amino]pyridine-3-carbonyl]amino]acetyl]amino]propanoic acid] | 4 | 23.9 | 4470
9 | O=C(O)C[C@H](NC(=O)CNC(=O)c1cncc(NC2=NCC(O)CN2)c1)c1cc(Br)cc(C(F)(F)F)c1 (stereo partly drawn) [Example 9, (3S)-3-[3-bromo-5-(trifluoromethyl)phenyl]-3-[[2-[[5-[(5-hydroxy-1,4,5,6-tetrahydropyrimidin-2-yl)amino]pyridine-3-carbonyl]amino]acetyl]amino]propanoic acid] | 3 | 5.6 | 4120
10 | O=C(O)C[C@H](NC(=O)CNC(=O)c1cc(O)cc(NC2=NCC(O)CN2)c1)c1cc(C(F)(F)F)cc(C(F)(F)F)c1 (stereo partly drawn) [Example 10, (3S)-3-[3,5-bis(trifluoromethyl)phenyl)-3-(2-(3-hydroxy-5-((5-hydroxy-1,4,5,6-tetrahydropyrimidin-2-yl)amino)benzamido)acetamido]propanoic acid] | 4 | 3.9 | 13000
11 | Cc1cc(Br)cc([C@H](CC(=O)O)NC(=O)CNC(=O)c2cc(O)cc(NC3=NCC(O)CN3)c2)c1 (stereo partly drawn) [Example 11, (3S)-3-[3-bromo-5-methyl-phenyl)-3-(2-(3-hydroxy-5-((5-hydroxy-1,4,5,6-tetrahydropyrimidin-2-yl)amino)benzamido)acetamido)propanoic acid] | 2 | 24 | 9140
12 | O=C(O)C[C@H](NC(=O)CNC(=O)c1cc(O)cc(NC2=NCC(O)CN2)c1)c1cc(Cl)cc(Br)c1O (stereo partly drawn) [Example C1, reference compound] | 5 ± 2 |  | 
13 | O=C(O)C[C@H](NC(=O)CNC(=O)c1cc(O)cc(NC2=NCC(O)CN2)c1)c1ccccc1 (stereo partly drawn) [Example C2, reference compound] | 3 |  | 
14 | O=C(O)CC(NC(=O)CNC(=O)c1cc(O)cc(NC2=NCC(O)CN2)c1)c1cc(Cl)cc(Cl)c1O (stereo not drawn) [Example C3, reference compound] | 2 |  | 
15 | Cc1cc(C)cc(C(CC(=O)O)NC(=O)CNC(=O)c2cccc(NC(=N)N)c2)c1 (stereo not drawn) [Example C4, reference compound] | 4 |  | 
16 | N=C(N)Nc1cccc(C(=O)NCC(=O)NC(CC(=O)O)c2ccccc2)c1 (stereo not drawn) [Example C5, reference compound] | 4 |  | 
17 | Cc1ccc(O)c(C(CC(=O)O)NC(=O)CNC(=O)c2cc(O)cc(NC3=NCC(O)CN3)c2)c1 (stereo not drawn) [Example C6, reference compound] | 6 |  | 
18 | O=C(O)CC(NC(=O)CNC(=O)c1cc(O)cc(NC2=NCC(O)CN2)c1)c1cc(Br)cc(Br)c1O (stereo not drawn) [Example C7, reference compound] | 11 |  | 
19 | Cc1ccc(O)c(C(CC(=O)O)NC(=O)CNC(=O)c2cccc(NC(=N)N)c2)c1 (stereo not drawn) [Example C8, reference compound] | 5 |  | 
20 | N=C(N)Nc1cccc(C(=O)NCC(=O)NC(CC(=O)O)c2cc(F)cc(C(F)(F)F)c2)c1 (stereo not drawn) [Example C9, reference compound] | 4 ± 1 |  | 
21 | Cc1cc(Cl)cc([C@@H](CC(=O)O)NC(=O)CNC(=O)c2cc(O)cc(NC3=NCC(O)CN3)c2)c1O (stereo partly drawn) [Example C10, reference compound] | 6 |  | 
22 | Cc1cc(Cl)cc([C@@H](CC(=O)O)NC(=O)CNC(=O)c2cccc(NC3=NCCN3)c2)c1O [Example C11, reference compound] | 9 |  | 
